{"source": "patent US11426397B2", "about": "“Piperidinyl- and piperazinyl-substituted heteroaromatic carboxamides as modulators of GPR6” (TAKEDA PHARMACEUTICAL COMPANY LIMITED, priority 2017, dated 2022)"}
{"target": "T1, GPR6 receptor expressed in CHO-K1 cells (Homo sapiens, UniProt P46095)", "T1 construct": "expressed in transfected cells", "T1 sequence (P46095 whole entry)": "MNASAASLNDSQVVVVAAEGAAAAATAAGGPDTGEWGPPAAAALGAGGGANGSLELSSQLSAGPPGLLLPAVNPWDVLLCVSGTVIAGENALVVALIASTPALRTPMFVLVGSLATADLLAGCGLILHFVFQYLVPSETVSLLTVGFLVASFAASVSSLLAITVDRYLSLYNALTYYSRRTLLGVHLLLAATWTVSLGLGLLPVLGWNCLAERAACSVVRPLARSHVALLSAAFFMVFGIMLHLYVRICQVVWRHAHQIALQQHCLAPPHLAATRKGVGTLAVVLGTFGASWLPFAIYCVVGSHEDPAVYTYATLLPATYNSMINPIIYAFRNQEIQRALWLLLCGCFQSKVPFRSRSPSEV", "test": "In vitro inhibition of cAMP (EC50), cell-based HTRF cAMP assay", "settings": "inhibition of constitutive cAMP activity of GPR6 in CHO-K1 cells", "method_in_brief": "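Tetracycline-inducible CHO-K1 line, GPR6 expression induced 20 h with 2 μg/mL doxycycline. Compounds incubated 45 min at 37 °C in Ringer's buffer (pH 7.4) with 0.5% fatty acid free BSA and 300 μM IBMX. Constitutive cAMP read by Lance HTRF; EC50 from four-parameter logistic fit.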"}
{"molecule": "COc1nccc(Cl)c1C(=O)Nc1cc(C#N)ccc1N1CCC(Oc2ccc(F)cc2F)CC1", "note": "[Example 223, 4-chloro-N-(5-cyano-2-(4-(2,4-difluorophenoxy)piperidin-1-yl)phenyl)-2-methoxynicotinamide]", "pEC50, in vitro inhibition of cAMP": 5.6}
{"molecule": "COc1ncc(F)cc1C(=O)Nc1cc(C#N)ccc1N1CCC(Oc2ccc(F)cc2F)CC1", "note": "[Example 224, N-(5-cyano-2-(4-(2,4-difluorophenoxy)piperidin-1-yl)phenyl)-5-fluoro-2-methoxynicotinamide]", "pEC50, in vitro inhibition of cAMP": 7.3}
{"molecule": "COc1ccc(Br)cc1C(=O)Nc1cc(C#N)ccc1N1CCC(Oc2ccc(F)cc2F)CC1", "note": "[Example 225, 5-bromo-N-(5-cyano-2-(4-(2,4-difluorophenoxy)piperidin-1-yl)phenyl)-2-methoxybenzamide]", "pEC50, in vitro inhibition of cAMP": 6.4}
{"molecule": "COc1cc(Br)ccc1C(=O)Nc1cc(C#N)ccc1N1CCC(Oc2ccc(F)cc2F)CC1", "note": "[Example 226, 4-bromo-N-(5-cyano-2-(4-(2,4-difluorophenoxy)piperidin-1-yl)phenyl)-2-methoxybenzamide]", "pEC50, in vitro inhibition of cAMP": 7.0}
{"molecule": "COc1cccc(C)c1C(=O)Nc1cc(C#N)ccc1N1CCC(Oc2ccc(F)cc2F)CC1", "note": "[Example 227, N-(5-cyano-2-(4-(2,4-difluorophenoxy)piperidin-1-yl)phenyl)-2-methoxy-6-methylbenzamide]", "pEC50, in vitro inhibition of cAMP": 5.8}
{"molecule": "COc1cc(Cl)ccc1C(=O)Nc1cc(C#N)ccc1N1CCC(Oc2ccc(F)cc2F)CC1", "note": "[Example 228, 4-chloro-N-(5-cyano-2-(4-(2,4-difluorophenoxy)piperidin-1-yl)phenyl)-2-methoxybenzamide]", "pEC50, in vitro inhibition of cAMP": 7.2}
{"molecule": "COc1cc(F)c(F)cc1C(=O)Nc1cc(C#N)ccc1N1CCC(Oc2ccc(F)cc2F)CC1", "note": "[Example 229]", "pEC50, in vitro inhibition of cAMP": 7.3}
{"molecule": "COc1cccc(C(=O)Nc2cc(C#N)ccc2N2CCC(Oc3ccc(F)cc3F)CC2)c1OC", "note": "[Example 230]", "pEC50, in vitro inhibition of cAMP": 7.1}
{"molecule": "COc1ccc(OC(F)(F)F)cc1C(=O)Nc1cc(C#N)ccc1N1CCC(Oc2ccc(F)cc2F)CC1", "note": "[Example 231, N-(5-cyano-2-(4-(2,4-difluorophenoxy)piperidin-1-yl)phenyl)-2-methoxy-5-(trifluoromethoxy)benzamide]", "pEC50, in vitro inhibition of cAMP": 6.3}
{"molecule": "COc1c(C)cccc1C(=O)Nc1cc(C#N)ccc1N1CCC(Oc2ccc(F)cc2F)CC1", "note": "[Example 232, N-(5-cyano-2-(4-(2,4-difluorophenoxy)piperidin-1-yl)phenyl)-2-methoxy-3-methylbenzamide]", "pEC50, in vitro inhibition of cAMP": 6.4}
{"molecule": "COc1c(C(=O)Nc2cc(C#N)ccc2N2CCC(Oc3ccc(F)cc3F)CC2)ccc(F)c1F", "note": "[Example 233, N-(5-cyano-2-(4-(2,4-difluorophenoxy)piperidin-1-yl)phenyl)-3,4-difluoro-2-methoxybenzamide]", "pEC50, in vitro inhibition of cAMP": 6.4}
{"molecule": "COc1c(Cl)cc(Cl)cc1C(=O)Nc1cc(C#N)ccc1N1CCC(Oc2ccc(F)cc2F)CC1", "note": "[Example 234, 3,5-dichloro-N-(5-cyano-2-(4-(2,4-difluorophenoxy)piperidin-1-yl)phenyl)-2-methoxybenzamide]", "pEC50, in vitro inhibition of cAMP": "<4.5"}
{"molecule": "COc1ccc(C(=O)Nc2cc(C#N)ccc2N2CCC(Oc3ccc(F)cc3F)CC2)c(OC)c1", "note": "[Example 235, N-(5-cyano-2-(4-(2,4-difluorophenoxy)piperidin-1-yl)phenyl)-2,4-dimethoxybenzamide]", "pEC50, in vitro inhibition of cAMP": 7.1}
{"molecule": "COc1cc(C)ccc1C(=O)Nc1cc(C#N)ccc1N1CCC(Oc2ccc(F)cc2F)CC1", "note": "[Example 236, N-(5-cyano-2-(4-(2,4-difluorophenoxy)piperidin-1-yl)phenyl)-2-methoxy-4-methylbenzamide]", "pEC50, in vitro inhibition of cAMP": 7.1}
{"molecule": "COc1ccc(C)cc1C(=O)Nc1cc(C#N)ccc1N1CCC(Oc2ccc(F)cc2F)CC1", "note": "[Example 237, N-(5-cyano-2-(4-(2,4-difluorophenoxy)piperidin-1-yl)phenyl)-2-methoxy-5-methylbenzamide]", "pEC50, in vitro inhibition of cAMP": 6.7}
{"molecule": "COc1cccc(OC)c1C(=O)Nc1cc(C#N)ccc1N1CCC(Oc2ccc(F)cc2F)CC1", "note": "[Example 238, N-(5-cyano-2-(4-(2,4-difluorophenoxy)piperidin-1-yl)phenyl)-2,6-dimethoxybenzamide]", "pEC50, in vitro inhibition of cAMP": 5.0}
{"molecule": "COc1ncccc1C(=O)Nc1cc(C#N)ccc1N1CCN(Cc2ccccc2F)CC1", "note": "[Example 239, N-(5-cyano-2-(4-(2-fluorobenzyl)piperazin-1-yl)phenyl)-2-methoxynicotinamide]", "pEC50, in vitro inhibition of cAMP": 6.9}
{"molecule": "COc1ncccc1C(=O)Nc1cc(C#N)ccc1N1CCN(Cc2cccc(F)c2)CC1", "note": "[Example 240, N-(5-cyano-2-(4-(3-fluorobenzyl)piperazin-1-yl)phenyl)-2-methoxynicotinamide]", "pEC50, in vitro inhibition of cAMP": 6.8}
{"molecule": "COc1ncccc1C(=O)Nc1cc(C#N)ccc1N1CCN(Cc2cscn2)CC1", "note": "[Example 241, N-(5-cyano-2-(4-(thiazol-4-ylmethyl)piperazin-1-yl)phenyl)-2-methoxynicotinamide]", "pEC50, in vitro inhibition of cAMP": 6.0}
{"molecule": "COc1ccc(F)c(CN2CCN(c3ccc(C#N)cc3NC(=O)c3cccnc3OC)CC2)c1", "note": "[Example 242, N-(5-cyano-2-(4-(2-fluoro-5-methoxybenzyl)piperazin-1-yl)phenyl)-2-methoxynicotinamide]", "pEC50, in vitro inhibition of cAMP": 6.8}
{"molecule": "COc1ncccc1C(=O)Nc1cc(C#N)ccc1N1CCN(Cc2cccc(F)c2F)CC1", "note": "[Example 243, N-(5-cyano-2-(4-(2,3-difluorobenzyl)piperazin-1-yl)phenyl)-2-methoxynicotinamide]", "pEC50, in vitro inhibition of cAMP": 6.5}
{"molecule": "COc1ncccc1C(=O)Nc1cc(C#N)ccc1N1CCN(Cc2ccc(F)cn2)CC1", "note": "[Example 244]", "pEC50, in vitro inhibition of cAMP": 6.3}
{"molecule": "COc1ncccc1C(=O)Nc1cc(C#N)ccc1N1CCN(Cc2ccccc2C#N)CC1", "note": "[Example 245, N-(5-cyano-2-(4-(2-cyanobenzyl)piperazin-1-yl)phenyl)-2-methoxynicotinamide]", "pEC50, in vitro inhibition of cAMP": 7.0}
{"molecule": "COc1ncccc1C(=O)Nc1cc(C#N)ccc1N1CCN(Cc2ccc(F)c(F)c2)CC1", "note": "[Example 246, N-(5-cyano-2-(4-(3,4-difluorobenzyl)piperazin-1-yl)phenyl)-2-methoxynicotinamide]", "pEC50, in vitro inhibition of cAMP": 7.1}
{"molecule": "COc1ccccc1CN1CCN(c2ccc(C#N)cc2NC(=O)c2cccnc2OC)CC1", "note": "[Example 247, N-(5-cyano-2-(4-(2-methoxybenzyl)piperazin-1-yl)phenyl)-2-methoxynicotinamide]", "pEC50, in vitro inhibition of cAMP": 5.9}
{"molecule": "COc1ncccc1C(=O)Nc1cc(C#N)ccc1N1CCN(Cc2cccc(C#N)c2)CC1", "note": "[Example 248, N-(5-cyano-2-(4-(3-cyanobenzyl)piperazin-1-yl)phenyl)-2-methoxynicotinamide]", "pEC50, in vitro inhibition of cAMP": 6.9}
{"molecule": "COc1ncccc1C(=O)Nc1cc(C#N)ccc1N1CCN(Cc2c(F)cccc2F)CC1", "note": "[Example 249]", "pEC50, in vitro inhibition of cAMP": 6.4}
{"molecule": "COc1ccc(CN2CCN(c3ccc(C#N)cc3NC(=O)c3cccnc3OC)CC2)nc1", "note": "[Example 250, N-(5-cyano-2-(4-((5-methoxypyridin-2-yl)methyl)piperazin-1-yl)phenyl)-2-methoxynicotinamide]", "pEC50, in vitro inhibition of cAMP": 6.0}
{"molecule": "COc1ncccc1C(=O)Nc1cnc(C(=O)N[C@@H]2CCOC2)cc1N1CCC(Oc2ccc(F)cc2F)CC1", "note": "[Example 251, (R)-4-(4-(2,4-difluorophenoxy)piperidin-1-yl)-5-(2-methoxynicotinamido)-N-(tetrahydrofuran-3-yl)picolinamide]", "pEC50, in vitro inhibition of cAMP": 6.8}
{"molecule": "CCNC(=O)c1cc(N2CCC(Oc3ccc(F)cc3F)CC2)c(NC(=O)c2cccnc2OC)cn1", "note": "[Example 252, 4-(4-(2,4-difluorophenoxy)piperidin-1-yl)-N-ethyl-5-(2-methoxynicotinamido)picolinamide]", "pEC50, in vitro inhibition of cAMP": 7.0}
{"molecule": "COc1ncccc1C(=O)Nc1cnc(C(=O)NC(C)C)cc1N1CCC(Oc2ccc(F)cc2F)CC1", "note": "[Example 253, 4-(4-(2,4-difluorophenoxy)piperidin-1-yl)-N-isopropyl-5-(2-methoxynicotinamido)picolinamide]", "pEC50, in vitro inhibition of cAMP": 6.8}
{"molecule": "CCCNC(=O)c1cc(N2CCC(Oc3ccc(F)cc3F)CC2)c(NC(=O)c2cccnc2OC)cn1", "note": "[Example 254, 4-(4-(2,4-difluorophenoxy)piperidin-1-yl)-5-(2-methoxynicotinamido)-N-propylpicolinamide]", "pEC50, in vitro inhibition of cAMP": 7.2}
{"molecule": "COc1ncc(F)cc1C(=O)Nc1ccc(C#N)nc1N1CCC(Oc2ccc(F)cc2F)CC1", "note": "[Example 255, N-(6-cyano-2-(4-(2,4-difluorophenoxy)piperidin-1-yl)pyridin-3-yl)-5-fluoro-2-methoxynicotinamide]", "pEC50, in vitro inhibition of cAMP": 7.3}
{"molecule": "COc1c(C(=O)Nc2ccc(C#N)nc2N2CCC(Oc3ccc(F)cc3F)CC2)cnn1C", "note": "[Example 256, N-(6-cyano-2-(4-(2,4-difluorophenoxy)piperidin-1-yl)pyridin-3-yl)-5-methoxy-1-methyl-H-pyrazole-4-carboxamide]", "pEC50, in vitro inhibition of cAMP": 6.7}
{"molecule": "Cn1cccc(C(=O)Nc2ccccc2N2CCC(Oc3ccc(F)cc3F)CC2)c1=O", "note": "[Example 257, N-(2-(4-(2,4-difluorophenoxy)piperidin-1-yl)phenyl)-1-methyl-2-oxo-1,2-dihydropyridine-3-carboxamide]", "pEC50, in vitro inhibition of cAMP": 7.0}
{"molecule": "O=C(Nc1ccccc1N1CCN(C(=O)c2ccc(Cl)cc2)CC1)c1ncccn1", "note": "[Example 258, N-(2-(4-(4-chlorobenzoyl)piperazin-1-yl)phenyl)pyrimidine-2-carboxamide]", "pEC50, in vitro inhibition of cAMP": 4.9}
{"molecule": "O=C(Nc1ccccc1N1CCN(C(=O)c2ccc(Cl)cc2)CC1)c1ccncn1", "note": "[Example 259, N-(2-(4-(4-chlorobenzoyl)piperazin-1-yl)phenyl)pyrimidine-4-carboxamide]", "pEC50, in vitro inhibition of cAMP": 5.3}
{"molecule": "CN(C(=O)c1ccccc1O)c1ccccc1N1CCN(C(=O)c2ccc(Cl)cc2)CC1", "note": "[Example 260]", "pEC50, in vitro inhibition of cAMP": 4.9}
